Laboratory results as given in ChEMBL document CHEMBL1157539, “Thousands of chemical starting points for antimalarial lead identification” (Nature, 2010).
Non-standard residues stand in square brackets, D forms with d. Residues, ends and D or L forms follow the SMILES beside them. *: point of attachment. Butanoyl(4-(4-HOPh)) = O=C(CCCc1ccc(O)cc1)*

Each compound was assayed on Plasmodium falciparum (assay: GSK_TCMDC: Inhibition of Plasmodium falciparum 3D7 in whole erythrocytes, using parasite LDH activity as an index of growth.). Conditions: not given.
Type: functional, organism-based
Work on Cc1nc2c(c(O)c1Cl)-c1ccc(Oc3cccc(C(F)(F)F)c3)cc1C2=O yielded an XC50 of 36.9 nM.

Same assay, conditions: Plasmodium falciparum, 3D7
For Cc1cc(-c2ncc[nH]2)ccc1-c1ccc(C(=O)N2CCc3cc4c(cc32)C2(CCN(C)CC2)CO4)cc1, the XC50 was 800 nM. In the case of Cc1sc(NC(=O)c2ccc([N+](=O)[O-])cc2Cl)c(C(N)=O)c1C, the XC50 is reported as 931 nM. In the case of Cc1ccc(CNC(=N)NC(=O)c2nc(Cl)c(NCc3ccc(Cl)cc3)nc2N)c(C)c1, the XC50 is reported as 167 nM. In the case of C=CCc1cc(Br)ccc1OCCCON1C(N)=NC(N)=NC1(C)C, the XC50 is reported as 3.2 nM. Work on CCCCn1c(C)c(C(=O)OCC)c2cc(OC(C)=O)c(Br)cc21 yielded an XC50 of 625 nM. C=CCOC(=O)N1CCC(CNCc2cccc(-c3ccc(-c4nc5ccccc5[nH]4)s3)c2)C1 (centres undefined) gave an XC50 of 272 nM. COc1ccc(O)c(C(=O)c2cc(C(=O)NC3CCCCC3)c(=O)n(C3CCCCC3)c2)c1 gave an XC50 of 664 nM. Work on Fc1cccc(COc2ccc(-n3ccc4c(NCCCn5ccnc5)ncnc43)cc2Cl)n1 yielded an XC50 of 1030 nM. In the case of CN(Cc1ccc(NC(=O)CCC2CCN(C(=O)/C=C/c3ccc(Cl)c(Cl)c3)CC2)cc1)C1CCOCC1, the XC50 is reported as 1730 nM. Work on O=C(CSc1nn(-c2ccccc2)c(=S)s1)c1c[nH]c2ccccc12 yielded an XC50 of 1090 nM. For CCCCc1ccc(Cc2cnc3nc(N)nc(N)c3c2C)cc1, the XC50 was 235 nM. For O=C(NCC(=O)N1CCC[C@H]1C(=O)O)[C@@H](Cc1ccccc1)NC(=O)[C@@H]1CCCN1C(=O)CCCc1ccc(O)cc1 ({Butanoyl(4-(4-HOPh))}-P[dF]GP-OH), the XC50 was 1050 nM. COc1ccc(-c2nonc2NC(=O)c2ccc(OC(C)C)cc2)cc1OC showed an XC50 of 635 nM. O=C(Nc1ccccc1)c1nn(CCCN2CCC(N3CCCC3)CC2)cc1-c1ccc(Cl)c(Cl)c1 gave an XC50 of 240 nM. COc1cc2nc(NCc3ccccc3)nc(NCc3ccccc3)c2cc1OC showed an XC50 of 151 nM. CCN(CC)CCN(Cc1ccc(-c2ccc(C(F)(F)F)cc2)cc1)C(=O)Cn1c(CCc2ccc(F)c(F)c2F)nc(=O)c2cccnc21 was tested, and the XC50 was 1130 nM. For COc1ccc(C)cc1NC(=O)CSc1nc2cccnc2n1C1CCCCC1, the XC50 was 544 nM. In the case of CCOc1ccc2ccccc2c1C(=O)Nc1cc(C)nn1-c1nc(C)cc(=O)[nH]1, the XC50 is reported as 1010 nM. In the case of CC(=O)N[C@H](C(=O)Nc1ccc(-c2ccc(-c3nc4cc(C(F)(F)F)ccc4[nH]3)cc2)cc1)C(C)C, the XC50 is reported as 889 nM. N#Cc1cccc(NC(=O)Nc2cccc(-c3cccc(-c4nc5cc(C(F)(F)F)ccc5[nH]4)c3)c2)c1 gave an XC50 of 224 nM. COc1ccc2ncc(F)c(CCN3CC(O)C(CNCc4ccc5c(c4)OCCO5)C3)c2n1 (centres undefined) showed an XC50 of 927 nM. NCC(=O)Nc1cccc(Nc2nccc(-c3c(-c4cccc(NC(=O)c5ccccc5)c4)nn4ccccc34)n2)c1 showed an XC50 of 432 nM. For Oc1ccc(CN2CCC(N3CCN(CCc4ccccc4)CC3)C(O)C2)cc1Cl (centres undefined), the XC50 was 865 nM. In the case of CCOc1ccc2c(=NN=Cc3cccc(OC)c3)cc(C)[nH]c2c1, the XC50 is reported as 123 nM. COc1cc(C=CC(=O)N2CCC(CCN3CCC(c4c[nH]c5ccccc45)CC3)CC2)cc(OC)c1 gave an XC50 of 909 nM. In the case of Cc1ccc(C(=O)Nc2ccc(-c3nc4ccccc4[nH]3)cc2)cc1S(=O)(=O)N1CCOCC1, the XC50 is reported as 1210 nM. COc1cc(C(=O)Nc2cccc(-c3cn4cccc(C)c4n3)c2)cc(OC)c1OC was tested, and the XC50 was 697 nM. Cc1ccc(Cn2ncc(NC3CCNCC3)c(Cl)c2=O)cc1NC(=O)Nc1ccc(-c2ccccc2)cc1 gave an XC50 of 657 nM. Cc1ccc(NC(=O)Nc2ccc(Cn3ncc(N4CCCNCC4)c(Cl)c3=O)cc2)cc1 gave an XC50 of 918 nM. With O=C(Cc1ccccc1)NC(CCN1CCC(O)(c2cccc(C(F)(F)F)c2)CC1)c1ccc(Cl)c(Cl)c1 (centres undefined) the XC50 was 855 nM. Compound Cc1cc(CNCCCCCNCc2cccc([N+](=O)[O-])c2)ccc1O has an XC50 of 784 nM. Clc1ccc(-c2cc(-c3csc(NCCN4CCOCC4)n3)on2)c(Cl)c1 gave an XC50 of 660 nM. In the case of O=C(Nc1cc(=O)[nH]c2nc(-c3ccccc3)nn12)C1CCCCC1, the XC50 is reported as 416 nM. CN(C)Cc1ccc(-c2cccc(Nc3nccc(NCC(O)c4ccccc4)n3)c2)cc1 (centres undefined) showed an XC50 of 373 nM. CCn1c2c(c(=N)c3ccccc31)CCC2 showed an XC50 of 505 nM. With O=C(NC1CCN(Cc2ccc(O)cc2)CC1)c1ccc(Cl)c(Cl)c1 the XC50 was 1180 nM. CCN(CC)CCCOC(=O)c1ccc2c(c1)-c1ccc(C(=O)OCCCN(CC)CC)c3cccc-2c13 was tested, and the XC50 was 933 nM. Cn1c(Nc2cc(C(C)(C)C)on2)nc2cc(Nc3ccnc(Nc4cccc(CS(C)(=O)=O)c4)n3)ccc21 showed an XC50 of 571 nM. Compound O=C(NCc1cccc2ccccc12)c1ccc(CNC2CCN(Cc3ccccc3)CC2)cc1 has an XC50 of 838 nM. O=C(Nc1cccc(C2=NCCCN2)c1)Nc1cccc(C2=NCCCN2)c1 showed an XC50 of 561 nM. With Fc1ccc2[nH]c(-c3ccc(-c4ccc(CNCCN5CCNCC5)cc4)cc3)nc2c1 the XC50 was 850 nM. Compound CCCCN(CCCC)CCOc1cc2c(cc1OC)CCN2C(=O)/C=C/c1ccccc1Cl has an XC50 of 1180 nM. CCCCc1cc(N2CCC(NC(C)=O)C2)nc(Nc2ccc(C)cc2)n1 (centres undefined) was tested, and the XC50 was 866 nM. In the case of CCN(CC)CCCC(C)Nc1c(-c2ccc(C)cc2)cnc2ccccc12 (centres undefined), the XC50 is reported as 200 nM. Cc1cccc(CC(=N)NCCCCCCNC(=N)Cc2cccc(C)c2)c1 was tested, and the XC50 was 167 nM. Compound COc1ccc2nccc([C@H](O)CN3CCC(NCc4ccc5c(c4C)OCCO5)CC3)c2n1 has an XC50 of 886 nM. Cc1cc([N+](=O)[O-])ccc1N1CCN(CCCCNC(=O)c2ccc(NC(=O)c3ccc(Cl)cc3)cc2)CC1 was tested, and the XC50 was 887 nM. In the case of COc1cccc(CNC(=O)[C@H]2CNCCN2C(=O)CCCc2ccccc2)c1, the XC50 is reported as 787 nM. In the case of CCNC(=O)Nc1cccc(-c2cccc(-c3nc4cc(C(F)(F)F)ccc4[nH]3)c2)c1, the XC50 is reported as 678 nM. With Cc1cccc2nc(-c3cccc(-c4cccc(NC(=O)C(C)CN(C)C)c4)c3)[nH]c12 (centres undefined) the XC50 was 413 nM. In the case of CC(C)(C)c1nn(-c2ccccc2)c2[nH]c(=O)c(CNC3CCCCC3)cc12, the XC50 is reported as 1250 nM. Cc1nc(N)nc(N)c1CCCOc1ccc(Br)cc1 was tested, and the XC50 was 485 nM. Work on Cn1cncc1C(=O)Nc1cccc(-c2cccc(-c3nc4cc(C(F)(F)F)ccc4[nH]3)c2)c1 yielded an XC50 of 205 nM. Work on CC1CCCC(NCc2c(O)ccc3ccccc23)C1 (centres undefined) yielded an XC50 of 931 nM. For CN(C(=O)NCCc1ccccc1)C1CCN(CCCCCNC(=O)/C=C/c2ccc(Cl)c(Cl)c2)CC1, the XC50 was 678 nM. O=C(C=CC(=O)N1CCCCC1)NCc1ccccc1 was tested, and the XC50 was 732 nM. COc1cccc([C@@H](CC(=O)Nc2cc(C(F)(F)F)ccc2OC)Nc2ccc(C#N)c3ccccc23)c1 was tested, and the XC50 was 993 nM. In the case of CCOc1ccc(-c2nonc2NC(=O)c2ccccc2F)cc1OCC, the XC50 is reported as 841 nM. CCN1CCN(Cc2ccc(NC(=O)c3cc4ccc5cccnc5c4[nH]3)cc2)CC1 gave an XC50 of 848 nM. O=C(/C=C/c1ccc(Cl)c(Cl)c1)NCCCCCN1CCC(NC(=O)Nc2ccc([N+](=O)[O-])cc2)CC1 was tested, and the XC50 was 686 nM. O=C(Nc1ccsc1)Nc1cccc(-c2cccc(-c3nc4ccccc4[nH]3)c2)c1 gave an XC50 of 117 nM. Work on Cn1ccnc1CNC(=O)c1ccc(-c2cccc(-c3nc4cc(F)ccc4[nH]3)c2)cc1 yielded an XC50 of 980 nM. COc1cc2nc(NCCC(C)C)n3nc(-c4ccccc4)nc3c2cc1OC was tested, and the XC50 was 417 nM. In the case of c1ccc2c(c1)ncn2-c1ccnc(Nc2ccncc2)n1, the XC50 is reported as 646 nM. Cc1cnc(Nc2ccccc2)nc1NCCC(=O)Nc1ccccc1 was tested, and the XC50 was 1160 nM. With CCNC(=O)Nc1ccc(-c2cnc(N)c(-c3nc4ccc(OC)cc4[nH]3)c2)cc1 the XC50 was 499 nM. Compound COc1ccccc1C1CCN(C2CCC(NC(=O)/C=C/c3ccc4c(c3)OC(F)(F)O4)CC2)CC1 (centres undefined) has an XC50 of 836 nM. Compound Clc1ncccc1-c1nc(NCCC(c2ccccc2)c2ccccc2)no1 has an XC50 of 1000 nM. With CC(C)CCNC(=O)c1cnc2c(O)cccc2c1Nc1cccc(NC(=O)c2ccc(F)cc2)c1 the XC50 was 913 nM. Cc1cc(N[C@@H](CC(C)C)C(=O)NCCOc2ccccc2)nc(NCCc2ccccc2)n1 gave an XC50 of 1510 nM. Compound CN1c2ccccc2Sc2cc(CNCCSCCNCc3ccc4c(c3)Sc3ccccc3N4C)ccc21 has an XC50 of 1010 nM. Work on Cc1cccc2nc(-c3cccc(-c4cccc(NC(=O)c5c[nH]cn5)c4)c3)[nH]c12 yielded an XC50 of 258 nM. Work on COc1ccc2c(OC)ccc(CNCCCCCCNCc3ccc(OC)c4ccc(OC)cc34)c2c1 yielded an XC50 of 399 nM. Compound Cc1cc2c(cc1C(F)(F)F)N(C(=O)Nc1ccc(C(=O)NC3CCN(Cc4ccccc4)C3)cc1)CC2 (centres undefined) has an XC50 of 776 nM. With Cc1ccc(/C=C/C(=O)NCCCCCN2CCCN(C(=O)Nc3ccc(Cl)c(Cl)c3)CC2)cc1 the XC50 was 942 nM. Compound CCOc1ccc2c(=NN=Cc3cc(OC)c(OC)c(OC)c3)cc(C)[nH]c2c1 has an XC50 of 613 nM. C/C=C/C=C/C1=NCCc2cc(OCCC)ccc21 showed an XC50 of 914 nM. For CN(C)c1ccc(-c2csc(C(=O)NC3CCN(Cc4ccc(C(C)(C)C)cc4)C3)c2)cc1 (centres undefined), the XC50 was 947 nM. O=C(CCCCCCc1ccccc1)Nc1ccc2nc3c(c(NCc4ccccc4)c2c1)CCCC3 showed an XC50 of 358 nM. For COc1c(C2CCN(CCCCNC(=O)c3ccc(-c4ccc(C#N)cc4)c(O)c3)CC2)ccc2c1CCCC2, the XC50 was 199 nM. O=C(Nc1ccc(Cl)cc1)Nc1ccc(-c2csc(-c3nc4ccccc4[nH]3)c2)cc1 showed an XC50 of 799 nM. Cc1nnsc1C(=O)Nc1cccc(-c2ccc(-c3nc4ccccc4[nH]3)cc2)c1 was tested, and the XC50 was 870 nM. For CCOc1ccccc1N1CCN(CCCNC(=O)/C(=C/C=C/c2cc3cc(Cl)c(Cl)cc3[nH]2)OC)CC1, the XC50 was 851 nM. With COc1ccc(/N=[N+](\[O-])c2ccccc2/[N+]([O-])=N/c2ccc(OC)cc2)cc1 the XC50 was 987 nM. Work on COc1csc2cc(Br)ccc12 yielded an XC50 of 861 nM. Work on CCc1cc2c(=O)c(-c3nc(C)cs3)c(N)oc2c(CN2CCCCC2)c1O yielded an XC50 of 658 nM. In the case of CCCCNc1nccc2ccc(-c3ccncc3)cc12, the XC50 is reported as 775 nM. CNC(=O)c1cnc(Nc2ccc(N3CCOCC3)cc2)nc1Nc1cccc(OC)c1 was tested, and the XC50 was 759 nM. Compound CC(C)Cc1nc(N2CCOCC2)c2nnn(Cc3ccccc3)c2n1 has an XC50 of 508 nM. With Cc1ccccc1C1CCN(C2CCC(NC(=O)C3=Cc4ccccc4OC3)CC2)CC1 (centres undefined) the XC50 was 935 nM. CC(C)(C)OC(=O)Nc1cccc(-c2csc(NC(=N)N)n2)c1 gave an XC50 of 836 nM. CCOC(=O)c1cc2c(CCN3C(=O)c4ccccc4C3=O)cn(C)c2cc1-c1ccncc1 gave an XC50 of 583 nM. With Cc1ccc(NC(=O)c2cc(Br)cc(N3CCCN(C)CC3)c2)cc1F the XC50 was 1340 nM. Nc1nc2c(ncn2OC[C@H](CO)OCP(=O)(O)O)c(=O)[nH]1 showed an XC50 of 341 nM. Cc1ccc(Oc2ccccc2NC(=O)CCc2nc3ccccc3c(=O)[nH]2)cc1 was tested, and the XC50 was 827 nM. With O=C(Nc1ccc(F)c(F)c1)c1ccc(CN2CCCN(Cc3cccc(F)c3)CC2)cc1 the XC50 was 1120 nM. Work on Cc1cc(F)ccc1-c1nc(N(C)CCN(C)C(=O)N(C)c2ccccc2)nc2c1ccc(=O)n2-c1c(F)cccc1F yielded an XC50 of 1240 nM. Compound COc1ccc(-c2ccc(NC(=O)c3ccc(Cl)cc3)cc2)cc1CN(C)CCN(C)C has an XC50 of 675 nM.
